pIC50: −log10 of the molar value. Converted amounts (≈) assume the structure as drawn.
Legend:
[1] = system: Moraxella catarrhalis; assay: Antimicrobial activity against Moraxella catarrhalis ATCC 43617 after 48 hrs by microtiter plate assay; format: functional; settings: ATCC 43617, 48 h
[2] = system: Haemophilus influenzae; assay: Antimicrobial activity against Haemophilus influenzae ATCC 51907 after 24 hrs by microtiter plate assay; format: functional; settings: ATCC 51907, 24 h
[3] = system: Staphylococcus aureus; assay: Antimicrobial activity against Staphylococcus aureus ATCC 6538p after 24 hrs by microtiter plate assay; format: functional
[4] = system: Streptococcus pneumoniae; assay: Antimicrobial activity against Streptococcus pneumoniae ATCC 6305 after 48 hrs by microtiter plate assay; format: functional; settings: ATCC 6305, 48 h
[5] = target: T1, Peptide deformylase (Pseudomonas aeruginosa (strain ATCC 15692 / PAO1 / 1C / PRS 101 / LMG12228), UniProt Q9I7A8); assay: Inhibition of Pseudomonas aeruginosa peptide deformylase after 10 mins by fluorescence assay
T1 sequence (Q9I7A8 whole entry): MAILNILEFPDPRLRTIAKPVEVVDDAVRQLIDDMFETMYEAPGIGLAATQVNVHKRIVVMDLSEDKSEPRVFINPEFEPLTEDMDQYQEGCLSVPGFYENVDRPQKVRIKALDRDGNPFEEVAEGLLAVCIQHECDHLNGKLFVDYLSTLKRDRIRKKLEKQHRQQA

| Compound | MIC [1] [µg/mL] | MIC [2] [µg/mL] | MIC [3] [µg/mL] | MIC [4] [µg/mL] | pIC50 [5] |
| --- | --- | --- | --- | --- | --- |
| CCCC[C@H](CN(O)C=O)C(=O)[C@@H]1CCCN1C(=O)OC(C)(C)C | 0.4 (≈ 1.17 µM) | 0.4 (≈ 1.17 µM) | 12.5 (≈ 36.5 µM) | 6.3 (≈ 18.4 µM) | 6.77 |
| CCCC[C@H](CN(O)C=O)C(=O)[C@H](NC(=O)OC(C)(C)C)C(C)(C)C | 0.1 (≈ 0.279 µM) | 3.2 (≈ 8.93 µM) | 100 (≈ 279 µM) | 6.3 (≈ 17.6 µM) | 6.22 |
| CCCC[C@H](CN(O)C=O)C(=O)[C@@H](NC(=O)OC(C)(C)C)C(C)C | 0.1 (≈ 0.29 µM) | 1.6 (≈ 4.65 µM) | 12.5 (≈ 36.3 µM) | 1.6 (≈ 4.65 µM) | 6.74 |
| CCCC[C@H](CN(O)C=O)C(=O)[C@H](C)NC(=O)OC(C)(C)C | 1.6 (≈ 5.06 µM) | 0.8 (≈ 2.53 µM) | 12.5 (≈ 39.5 µM) | 3.2 (≈ 10.1 µM) | 6.48 |
| COc1ccccc1NC(=O)N[C@@H](C(=O)N(CC(=O)NO)CC1CCCC1)C(C)(C)C | 0.1 (≈ 0.23 µM) | 0.2 (≈ 0.46 µM) | 50 (≈ 115 µM) | 0.2 (≈ 0.46 µM) | 7.54 |
| CCCC[C@H](CN(O)C=O)C(=O)[C@@H](NC(=O)C(C)C)C(C)C | 1.6 (≈ 5.09 µM) | 0.2 (≈ 0.636 µM) | 3.2 (≈ 10.2 µM) | 0.8 (≈ 2.54 µM) | 7.22 |
| CCCC[C@H](CN(O)C=O)C(=O)[C@@H](NC(=O)c1cccc(F)c1)C(C)C | 1.6 (≈ 4.37 µM) | 0.2 (≈ 0.546 µM) | 1.6 (≈ 4.37 µM) | 0.4 (≈ 1.09 µM) | 7.37 |
| CCCC[C@H](CN(O)C=O)C(=O)[C@@H](NC(=O)c1cccnc1)C(C)C | 0.1 (≈ 0.286 µM) | 0.1 (≈ 0.286 µM) | 0.8 (≈ 2.29 µM) | 0.2 (≈ 0.572 µM) | 7.14 |
| CCCC[C@H](CN(O)C=O)C(=O)[C@@H](NC(=O)c1ccncc1)C(C)C | 0.1 (≈ 0.286 µM) | 0.1 (≈ 0.286 µM) | 1.6 (≈ 4.58 µM) | 0.4 (≈ 1.14 µM) | 7.28 |
| CCCC[C@H](CN(O)C=O)C(=O)[C@@H](NC(=O)c1ccc2ccccc2n1)C(C)C | 0.1 (≈ 0.25 µM) | 0.2 (≈ 0.501 µM) | 0.4 (≈ 1 µM) | 0.1 (≈ 0.25 µM) | 8.10 |
| CCCC[C@H](CN(O)C=O)C(=O)[C@@H](NC(=O)c1nccc2ccccc12)C(C)C | 0.1 (≈ 0.25 µM) | 0.4 (≈ 1 µM) | 6.4 (≈ 16 µM) | 0.4 (≈ 1 µM) | 8.30 |
| CCCC[C@H](CN(O)C=O)C(=O)[C@@H](NC(=O)NC(C)C)C(C)C | 0.8 (≈ 2.43 µM) | 0.1 (≈ 0.304 µM) | 1.6 (≈ 4.86 µM) | 0.4 (≈ 1.21 µM) | 7.80 |
| CCCC[C@H](CN(O)C=O)C(=O)[C@@H](NC(=O)NC1CCCC1)C(C)C | 0.1 (≈ 0.281 µM) | 0.2 (≈ 0.563 µM) | 1.6 (≈ 4.5 µM) | 1.6 (≈ 4.5 µM) | 8.00 |

Continued, values first:

| MIC [1] [µg/mL] | MIC [2] [µg/mL] | MIC [3] [µg/mL] | MIC [4] [µg/mL] | pIC50 [5] | Compound |
| --- | --- | --- | --- | --- | --- |
| 0.4 (≈ 1.15 µM) | 0.2 (≈ 0.574 µM) | 3.2 (≈ 9.18 µM) | 3.2 (≈ 9.18 µM) | 7.29 | CCCC[C@H](CN(O)C=O)C(=O)[C@@H](NC(=O)c1ccccc1)C(C)C |
| 0.1 (≈ 0.286 µM) | 0.1 (≈ 0.286 µM) | 1.6 (≈ 4.58 µM) | 0.2 (≈ 0.572 µM) | 6.93 | CCCC[C@H](CN(O)C=O)C(=O)[C@@H](NC(=O)c1ccccn1)C(C)C |
| 0.8 (≈ 2.11 µM) | 0.2 (≈ 0.528 µM) | 0.8 (≈ 2.11 µM) | 0.2 (≈ 0.528 µM) | 7.66 | CCCC[C@H](CN(O)C=O)C(=O)[C@@H](NC(=O)c1cccc(OC)c1)C(C)C |
| 0.1 (≈ 0.275 µM) | 0.4 (≈ 1.1 µM) | 1.6 (≈ 4.4 µM) | 0.4 (≈ 1.1 µM) | 7.31 | CCCC[C@H](CN(O)C=O)C(=O)[C@@H](NC(=O)Nc1ccccc1)C(C)C |
| 0.1 (≈ 0.254 µM) | 0.2 (≈ 0.508 µM) | 0.8 (≈ 2.03 µM) | 0.1 (≈ 0.254 µM) | 7.39 | CCCC[C@H](CN(O)C=O)C(=O)[C@@H](NC(=O)Nc1ccccc1OC)C(C)C |
| 0.1 (≈ 0.262 µM) | 0.1 (≈ 0.262 µM) | 0.4 (≈ 1.05 µM) | 0.2 (≈ 0.524 µM) | 7.39 | CCCC[C@H](CN(O)C=O)C(=O)[C@@H](NC(=O)Nc1ccccc1F)C(C)C |
| 0.1 (≈ 0.274 µM) | 0.1 (≈ 0.274 µM) | 0.8 (≈ 2.2 µM) | 1.6 (≈ 4.39 µM) | 7.37 | CCCC[C@H](CN(O)C=O)C(=O)[C@@H](NC(=O)Nc1ccccn1)C(C)C |
